Key:
GHSR1a [1] = target: T1, GHSR1a (Homo sapiens, UniProt Q92847); assay: Calcium FLIPR assay, GHSR-1a antagonism (reduction of ghrelin response); assay type: cell-based; conditions: HEK293/GHSR1a cells, ghrelin 10 nM
T1 construct: expressed in transfected cells; host or cells: HEK293
Procedure: (§1) The intracellular calcium assay was carried out in a 384-well format FLIPR™ (Molecular Device) HEK293/GHSR1a cell line. Cells were seeded 24 hr prior to the experiments at an optimal density per well. Preincubation with selected calcium dye lasted for 30-60 min at room temperature or 37° C. Test compounds, dissolved in DMSO, were added at the appropriate time and incubated for 15 min followed by the addition of ghrelin with FlexStation or FLIPR. Relative fluorescence was monitored by the FLIPR™ Molecular Device. EC50 and IC50 values were estimated from dose-response data using GraphPad Prism software. To check for GHSR-1a agonism the compound was added at t=20 sec. and the calcium response was followed for 2 minutes. To check for GHSR-1a antagonism the compound and Ghrelin (10 nM) were added to the cells at t=20 sec. and the calcium response was measured for 2 minutes. The potency of the antagonist was calculated by its ability to reduce the ghrelin response. Dose-response curves were made for relevant antagonists.

GHSR1a [2] = target: T1, GHSR1a; assay: Calcium FLIPR assay, GHSR-1a agonism; assay type: cell-based; design: Emax: unit not given here; conditions: HEK293/GHSR1a cells
Procedure: as §1

T1 sequence (Q92847 whole entry): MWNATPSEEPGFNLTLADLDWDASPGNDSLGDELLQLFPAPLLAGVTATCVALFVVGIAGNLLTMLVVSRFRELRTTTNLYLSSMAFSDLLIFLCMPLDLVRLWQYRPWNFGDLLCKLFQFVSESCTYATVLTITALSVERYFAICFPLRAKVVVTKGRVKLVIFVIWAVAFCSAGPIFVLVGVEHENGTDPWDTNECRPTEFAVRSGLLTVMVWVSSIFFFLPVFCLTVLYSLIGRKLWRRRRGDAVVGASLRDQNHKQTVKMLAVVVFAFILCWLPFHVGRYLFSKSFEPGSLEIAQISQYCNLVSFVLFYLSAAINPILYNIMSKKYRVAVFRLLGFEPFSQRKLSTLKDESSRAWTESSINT

CC(NC(=O)N(C)C1CCN(C)CC1)c1ccc(-c2cccs2)c(Cl)c1Cl (single isomer, unassigned) [Compound H0564, 3-(1-(2,3-dichloro-4-(thiophen-2-yl)phenyl)ethyl)-1-methyl-1-(1-methylpiperidin-4-yl)urea] was tested, and the IC50 (GHSR1a [1]) was 75 nM, the EC50 (GHSR1a [2]) was 124 nM and the Emax (GHSR1a [2]) was 1987.

With CN1CCC(N(O)C(=O)NC(CC2CC2)c2ccc(-c3cnccn3)c(Cl)c2Cl)CC1 (single isomer, unassigned) [Compound H0781, 3-(2-cyclopropyl-1-(2,3-dichloro-4-(pyrazin-2-yl)phenyl)ethyl)-1-hydroxy-1-(1-methylpiperidin-4-yl)urea] the IC50 (GHSR1a [1]) was 95 nM, the EC50 (GHSR1a [2]) was 420 nM and the Emax (GHSR1a [2]) was 4210.

Compound CC[C@@H](NC(=O)N(C)C1CCN(C)CC1)c1ccc(-c2cnccn2)c(Cl)c1Cl (single isomer, unassigned) [Compound H0859] has an IC50 (GHSR1a [1]) of 2200 nM and an EC50 (GHSR1a [2]) of over 30000 nM.

With C[C@H](NC(=O)N(C)C1CCN(C)C1)c1ccc(-c2cnccn2)c(Cl)c1Cl (single isomer, unassigned) [Compound H0861] the IC50 (GHSR1a [1]) was 189 nM and the EC50 (GHSR1a [2]) was over 30000 nM.

Compound CC(NC(=O)N(C)C1CCN(C)CC1)c1ccc(-c2cccc3c2cnn3C)c(Cl)c1Cl (centres unmarked) [Compound H0512, 3-(1-(2,3-dichloro-4-(1-methyl-1H-indazol-4-yl)phenyl)ethyl)-1-methyl-1-(1-methylpiperidin-4-yl)urea] has an IC50 (GHSR1a [1]) of 495 nM and an EC50 (GHSR1a [2]) of over 30000 nM.

With CC(NC(=O)N(C)C1CCN(C)CC1)c1ccc(-c2cccc3[nH]ncc23)c(Cl)c1Cl (centres unmarked) [Compound H0513, 3-(1-(2,3-dichloro-4-(1H-indazol-4-yl)phenyl)ethyl)-1-methyl-1-(1-methylpiperidin-4-yl)urea] the IC50 (GHSR1a [1]) was 544 nM and the EC50 (GHSR1a [2]) was over 30000 nM.

CC(NC(=O)N(C)C1CCN(C)CC1)c1ccc(-c2ccc3[nH]ccc3c2)c(Cl)c1Cl (centres unmarked) [Compound H0515, 3-(1-(2,3-dichloro-4-(1H-indol-5-yl)phenyl)ethyl)-1-methyl-1-(1-methylpiperidin-4-yl)urea] was tested, and the IC50 (GHSR1a [1]) was 40 nM and the EC50 (GHSR1a [2]) was 885 nM.

With CC(NC(=O)N(C)C1CCN(C)CC1)c1ccc(-c2ccc(N)cc2)c(Cl)c1Cl (centres unmarked) [Compound H0517, 3-(1-(4′-amino-2,3-dichloro-[1,1′-biphenyl]-4-yl)ethyl)-1-methyl-1-(1-methylpiperidin-4-yl)urea] the IC50 (GHSR1a [1]) was 19 nM and the EC50 (GHSR1a [2]) was over 30000 nM.

CC(NC(=O)N(C)C1CCN(C)CC1)c1ccc(-c2ccc(N(C)C)cc2)c(Cl)c1Cl (centres unmarked) [Compound H0518, 3-(1-(2,3-dichloro-4′-(dimethylamino)-[1,1′-biphenyl]-4-yl)ethyl)-1-methyl-1-(1-methylpiperidin-4-yl)urea] gave an IC50 (GHSR1a [1]) of 841 nM and an EC50 (GHSR1a [2]) of over 30000 nM.

Compound CC(NC(=O)N(C)C1CCN(C)CC1)c1ccc(C2=CCCCC2)c(Cl)c1Cl (centres unmarked) [Compound H0520, 3-(1-(2,3-dichloro-2′,3′,4′,5′-tetrahydro-[1,1′-biphenyl]-4-yl)ethyl)-1-methyl-1-(1-methylpiperidin-4-yl)urea] has an IC50 (GHSR1a [1]) of 202 nM and an EC50 (GHSR1a [2]) of 394 nM.

Compound COC(=O)c1ccc(C(C)NC(=O)N(C)C2CCN(C)CC2)c(Cl)c1Cl (centres unmarked) [Compound H0521] has an IC50 (GHSR1a [1]) of 20 nM and an EC50 (GHSR1a [2]) of 19 nM.

Work on CC(NC(=O)N(C)C1CCN(C)CC1)c1ccc(C#N)c(Cl)c1Cl (centres unmarked) [Compound H0523, 3-(1-(2,3-dichloro-4-cyanophenyl)ethyl)-1-methyl-1-(1-methylpiperidin-4-yl)urea] yielded an IC50 (GHSR1a [1]) of 668 nM and an EC50 (GHSR1a [2]) of over 30000 nM.

Work on CC(NC(=O)N(C)C1CCN(C)C1)c1ccc(-c2cccnc2)c(Cl)c1Cl (centres unmarked) [Compound H0526, 3-(1-(2,3-dichloro-4-(pyridin-3-yl)phenyl)ethyl)-1-methyl-1-(1-methylpyrrolidin-3-yl)urea] yielded an IC50 (GHSR1a [1]) of 57 nM and an EC50 (GHSR1a [2]) of over 30000 nM.

Work on CC(NC(=O)N(C)C1CCN(C)CC1)c1ccc(-c2ccc[nH]2)c(Cl)c1Cl (centres unmarked) [Compound H0535, 3-(1-(2,3-dichloro-4-(1H-pyrrol-2-yl)phenyl)ethyl)-1-methyl-1-(1-methylpiperidin-4-yl)urea] yielded an IC50 (GHSR1a [1]) of 34 nM and an EC50 (GHSR1a [2]) of 4 nM.

Work on COC(=O)c1ccc(CN(C(=O)NC(C)c2ccc(-c3cccnc3)c(Cl)c2Cl)C2CCN(C)CC2)cc1 (centres unmarked) [Compound H0539, methyl 4-((3-(1-(2,3-dichloro-4-(pyridin-3-yl)phenyl)ethyl)-1-(1-methylpiperidin-4-yl)ureido)methyl)benzoate] yielded an IC50 (GHSR1a [1]) of 9 nM and an EC50 (GHSR1a [2]) of over 30000 nM.

CC(NC(=O)N(C)C1CCN(C)CC1)c1ccc(-c2cn[nH]c2)c(Cl)c1F (centres unmarked) [Compound H0571, 3-(1-(3-chloro-2-fluoro-4-(1H-pyrazol-4-yl)phenyl)ethyl)-1-methyl-1-(1-methylpiperidin-4-yl)urea] showed an IC50 (GHSR1a [1]) of 154 nM and an EC50 (GHSR1a [2]) of over 30000 nM.

In the case of CC(NC(=O)N(C)C1CCN(C)CC1)c1ccc(-c2cn[nH]c2)c2ccccc12 (centres unmarked) [Compound H0576, 3-(1-(4-(1H-pyrazol-4-yl)naphthalen-1-yl)ethyl)-1-methyl-1-(1-methylpiperidin-4-yl)urea], the IC50 (GHSR1a [1]) is reported as 180 nM and the EC50 (GHSR1a [2]) is reported as over 30000 nM.

In the case of CC(NC(=O)N(C)C1CCN(C)CC1)c1ccc(-c2cccnc2)c2ccccc12 (centres unmarked) [Compound H0577, 1-methyl-1-(1-methylpiperidin-4-yl)-3-(1-(4-(pyridin-3-yl)naphthalen-1-yl)ethyl)urea], the IC50 (GHSR1a [1]) is reported as 233 nM and the EC50 (GHSR1a [2]) is reported as over 30000 nM.

CC(NC(=O)N(C)C1CCN(C)CC1)c1ccc(-c2ccncc2)c2ccccc12 (centres unmarked) [Compound H0578, 1-methyl-1-(1-methylpiperidin-4-yl)-3-(1-(4-(pyridin-4-yl)naphthalen-1-yl)ethyl)urea] was tested, and the IC50 (GHSR1a [1]) was 490 nM and the EC50 (GHSR1a [2]) was over 30000 nM.

Work on CC(NC(=O)N(C)C1CCN(C)CC1)c1ccc(-c2cncnc2)c2ccccc12 (centres unmarked) [Compound H0579, 1-methyl-1-(1-methylpiperidin-4-yl)-3-(1-(4-(pyrimidin-5-yl)naphthalen-1-yl)ethyl)urea] yielded an EC50 (GHSR1a [2]) of over 30000 nM.

CC(NC(=O)N(C)C1CCCCC1)c1ccc(-c2cncnc2)c(Cl)c1Cl (centres unmarked) [Compound H0584, 1-cyclohexyl-3-(1-(2,3-dichloro-4-(pyrimidin-5-yl)phenyl)ethyl)-1-methylurea] was tested, and the IC50 (GHSR1a [1]) was 1100 nM and the EC50 (GHSR1a [2]) was over 30000 nM.

CC(NC(=O)N(C)C1CCOCC1)c1ccc(-c2cncnc2)c(Cl)c1Cl (centres unmarked) [Compound H0586, 3-(1-(2,3-dichloro-4-(pyrimidin-5-yl)phenyl)ethyl)-1-methyl-1-(tetrahydro-2H-pyran-4-yl)urea] was tested, and the IC50 (GHSR1a [1]) was 4200 nM and the EC50 (GHSR1a [2]) was 63000 nM.

CC(NC(=O)N(C)C1CCC(F)(F)CC1)c1ccc(-c2cncnc2)c(Cl)c1Cl (centres unmarked) [Compound H0587, 3-(1-(2,3-dichloro-4-(pyrimidin-5-yl)phenyl)ethyl)-1-(4,4-difluorocyclohexyl)-1-methylurea] gave an IC50 (GHSR1a [1]) of over 30000 nM and an EC50 (GHSR1a [2]) of over 30000 nM.

In the case of CC(=O)N1CCC(N(C)C(=O)NC(C)c2ccc(-c3cncnc3)c(Cl)c2Cl)CC1 (centres unmarked) [Compound H0588, 1-(1-acetylpiperidin-4-yl)-3-(1-(2,3-dichloro-4-(pyrimidin-5-yl)phenyl)ethyl)-1-methylurea], the IC50 (GHSR1a [1]) is reported as over 30000 nM and the EC50 (GHSR1a [2]) is reported as over 30000 nM.

With CC(NC(=O)N(C)C1CCN(C)CC1)c1ccc(-c2nnco2)c(Cl)c1Cl (centres unmarked) [Compound H0595, 3-(1-(2,3-dichloro-4-(1,3,4-oxadiazol-2-yl)phenyl)ethyl)-1-methyl-1-(1-methylpiperidin-4-yl)urea] the IC50 (GHSR1a [1]) was 28 nM and the EC50 (GHSR1a [2]) was 43 nM.

In the case of CC(NC(=O)N(C)C1CCN(C)CC1)c1ccc(-c2ccoc2)c2ccccc12 (centres unmarked) [Compound H0598, 3-(1-(4-(furan-3-yl)naphthalen-1-yl)ethyl)-1-methyl-1-(1-methylpiperidin-\4-yl)urea], the IC50 (GHSR1a [1]) is reported as 63 nM and the EC50 (GHSR1a [2]) is reported as 271 nM.

CC(NC(=O)N(C)C1CCN(C)CC1)c1ccc(-c2cnc[nH]2)c2ccccc12 (centres unmarked) [Compound H0599, 3-(1-(4-(1H-imidazol-5-yl)naphthalen-1-yl)ethyl)-1-methyl-1-(1-methylpiperidin-4-yl)urea] gave an IC50 (GHSR1a [1]) of 212 nM and an EC50 (GHSR1a [2]) of 478 nM.

In the case of CC(NC(=O)N(C)C1CCN(C)CC1)c1ccc(C#C[Si](C)(C)C)c(Cl)c1Cl (centres unmarked) [Compound H0602, 3-(1-(2,3-dichloro-4-((trimethylsilyl)ethynyl)phenyl)ethyl)-1-methyl-1-(1-methylpiperidin-4-yl)urea], the IC50 (GHSR1a [1]) is reported as 8 nM and the EC50 (GHSR1a [2]) is reported as over 30000 nM.

CC(NC(=O)N(C)C1CCN(C)CC1)c1ccc(-c2cc(F)cc(F)c2)c(Cl)c1Cl (centres unmarked) [Compound H0605, 3-(1-(2,3-dichloro-3′,5′-difluoro[1,1′-biphenyl]-4-yl)ethyl)-1-methyl-1-(1-methylpiperidin-4-yl)urea] showed an IC50 (GHSR1a [1]) of 31 nM, an EC50 (GHSR1a [2]) of 96 nM and an Emax (GHSR1a [2]) of 1833.

Work on COc1cccc(-c2ccc(C(C)NC(=O)N(C)C3CCN(C)CC3)c(Cl)c2Cl)c1 (centres unmarked) [Compound H0606, 3-(1-(2,3-dichloro-3′-methoxy-[1,1′-biphenyl]-4-yl)ethyl)-1-methyl-1-(1-methylpiperidin-4-yl)urea] yielded an IC50 (GHSR1a [1]) of 24 nM, an EC50 (GHSR1a [2]) of 31 nM and an Emax (GHSR1a [2]) of 2336.

Compound CC(C)Oc1ccc(-c2ccc(C(C)NC(=O)N(C)C3CCN(C)CC3)c(Cl)c2Cl)cn1 (centres unmarked) [Compound H0608, 3-(1-(2,3-dichloro-4-(6-isopropoxypyridin-3-yl)phenyl)ethyl)-1-methyl-1-(1-methylpiperidin-4-yl)urea] has an IC50 (GHSR1a [1]) of 69 nM and an EC50 (GHSR1a [2]) of 422 nM.

COc1ccc(C(C#N)NC(=O)N(C)C2CCN(C)CC2)c(Cl)c1Cl (centres unmarked) [Compound H0669, 3-(cyano(2,3-dichloro-4-methoxyphenyl)methyl)-1-methyl-1-(1-methylpiperidin-4-yl)urea] was tested, and the EC50 (GHSR1a [2]) was 5 nM and the Emax (GHSR1a [2]) was 4961.

COC(=O)c1ccc(C#Cc2ccc(C(C)NC(=O)N(C)C3CCN(C)CC3)c(Cl)c2Cl)s1 (centres unmarked) [Compound H0779] showed an IC50 (GHSR1a [1]) of 429 nM.

From patent US9546157B2, “Asymmetric piperidinyl-substituted ureas as medicines” (Helsinn Healthcare SA, priority 2014, dated 2017)
